We go through 22 compounds from paper PMC5789092 (Scientific Reports, 2018).

The subject of data set [1] is HeLa (human cervix cancer). In words: SRB cytotoxicity assay, HeLa. Type of data set: cell-based. Particulars: 72 h, mean ± SD. Background: The SRB assay estimates cell density from bound dye.
For data set [2], the system named is PC-3 (human prostate cancer). In words: SRB cytotoxicity assay, PC-3. The following applies: 72 h. The class given is cell-based.
The test system of data set [3] is HEp-2 (human larynx epidermal cancer). In words: SRB cytotoxicity assay, HEp-2. The following applies: 72 h, mean ± SD. The class given is cell-based. From the text: (§1) All the synthesized derivatives of 1 and 2 were screened for their anticancer activities against four human cancer cell lines (HeLa, PC-3, HEp-2 and HepG2) and two normal cell lines (CHO and HUVEC) using the sulforhodamine B (SRB) assay.
(§2) PC-3 (human prostate cancer), HepG2 (human liver cancer) and CHO (Chinese hamster ovary) cell lines were obtained from Shanghai Institute of Biochemistry and Cell Biology, Chinese Academy of Sciences. HeLa (human cervix cancer), HUVEC (human umbilical vein endothelial cells) and HEp-2 (human laryngeal cancer) cell lines were granted by Prof. Lei of college of life sciences, Northwest A&F University. The six cell lines were grown in RPMI-1640 (Gibco) containing 10% (v/v) thermally inactivated fetal bovine serum (FBS), penicillin (100 KU/L) and streptomycin (100 KU/L) at 37 °C in a 5% CO2 humidified incubator.
(§3) In vitro cytotoxicity was assessed by using the SRB colorimetric assay refer to previous methods[19],[42].

Data set [4] concerns HepG2 (human liver cancer). In words: SRB cytotoxicity assay, HepG2. The class given is cell-based. The following applies: 72 h.
The subject of data set [5] is HUVEC (human umbilical vein endothelial cell). In words: SRB cytotoxicity assay, HUVEC normal cells. Type of data set: cell-based. The following applies: Homo sapiens, HUVEC; 72 h, SRB, normal cell line.
Data set [6] has as its system HeLa, PC-3, HEp-2 and HepG2 cells. In words: SRB cytotoxicity, summary over the cancer cell lines. Type of data set: cell-based, human.
A further data set concerns PC-3 cells. In words: Cell cycle analysis (PI staining, flow cytometry). The class given is cell-based, human. The following applies: PC-3, 48 h. (Flow cytometry measures light scatter and fluorescence of single cells or particles in a stream.)
For data set [7], the system named is HEp-2 (human larynx epidermal cancer). Particulars: footnote b; ref Xiang et al.[22]; cited from earlier work.
Data set [8] relates to CHO (Chinese hamster ovary). Particulars: footnote b; ref Xiang et al.[22]; cited from earlier work.
In data set [9] the test system is CHO (Chinese hamster ovary). In words: SRB cytotoxicity assay, CHO normal cells. Type of data set: cell-based. The following applies: Cricetulus griseus, 72 h, normal cell line.
Source text: as §1, §2, §3

The mark [10] stands for this setting: mean ± SD, read-out: IC50 HepG2.
[11] abbreviates: read-out: IC50 PC-3 (Table 3, C13-methylene modified derivatives).
Setting [12] is: read-out: IC50 HepG2 (Table 3, C13-methylene modified derivatives).

Structures are written as SMILES. Like-named read-outs stand apart in the source and are kept apart here.

Experimental for PC-3 cells: The cultured cells were treated with these compounds at the indicated concentrations for 48 h, then harvested, and analyzed by flow cytometry. […] Each experiment was performed in triplicate.
The cell cycle arrest on PC-3 and HepG2 cells was detected with PI staining assay (Sigma) as described previously[19]. After treatment with samples at the set concentrations for 48 h, cells were centrifuged and fixed in 70% ethanol at 4 °C refrigerator 12 h and then resuspended in PBS (100 μL RNase A and 400 μL PI). Cellular DNA content was measured using a FACSCalibur flow cytometer with Modfit LT 3.0 software. Twenty thousand cells were collected per sample. Mean values are presented from three independent experiments.

One may read the IC50 as the midpoint of a concentration-inhibition curve. Consider `C=C1C(=O)O[C@@H]2C[C@]3(C)C(=C(C)CC[C@H]3OC(=O)c3ccccc3)C[C@H]12` [2b, 1β-benzoyl ivangustin], for which the IC50 in data set [1] is 27.9 ± 2.5 µM; in data set [2] (mean ± SD, read-out: IC50 PC-3) it was above 40 µM; in data set [3], above 40 µM; in [4] (setting [10]), above 40 µM.

For the compound `C=C1C(=O)OC2CC3(C)C(=CC12)C(C)CCC3O` (stereo not drawn) [compound 1, 1β-hydroxyalantolactone], the IC50 in [1] was 3.2 ± 0.8 µM; in data set [2] (mean ± SD, read-out: IC50 PC-3) it was 4.5 ± 0.7 µM; in [4] (setting [10]) it was 5.2 ± 0.1 µM; in data set [5], 9.2 ± 0.1 µM; in data set [6] (Homo sapiens, range over four cancer cell lines, read-out: IC50 range against HeLa, PC-3, HEp-2 and HepG2 cells), 3.2 to 6.4 µM; in data set [7] it was 3.3 ± 0.2 µM. Also, the IC50 in [8] was 6.4 ± 0.1 µM. The figures for the “%G0/G1” value in the data set on PC-3 cells (1.0 μM), in the data set on PC-3 cells (2.0 μM) and in the data set on PC-3 cells (4.0 μM) were 51.2%, 49.3% and 45.8%, respectively. Besides, the “%G2/M” value in the data set on PC-3 cells (1.0 μM) is given as 17.1%; with PC-3 cells (2.0 μM) it was 16.7%; with PC-3 cells (4.0 μM), 18.0%. Also, the “%S” value with PC-3 cells (1.0 μM) is on record as 31.7%; in the data set with PC-3 cells (2.0 μM) it was 34.0%; in the data set on PC-3 cells (4.0 μM), 36.2%.

In the case of `C=C1C(=O)O[C@@H]2C[C@]3(C)C(=C[C@H]12)[C@@H](C)CC[C@H]3OC(=O)c1ccc(OC)cc1` [1e], the 50% inhibitory concentration (IC50) was above 40 µM in data set [1]; above 40 µM in [2] (mean ± SD, read-out: IC50 PC-3); above 40 µM in data set [3]; 34.1 ± 4.8 µM in [4] (setting [10]).

For the compound `COc1ccc(C2=NO[C@]3(C2)C(=O)O[C@@H]2C[C@@]4(C)C(=O)CC[C@H](C)C4=C[C@@H]23)cc1` [1o, (11 S)-16-(p-methoxyphenyl)-spiroisoxazoline-1-carbonyl-alantolactone], the IC50 in data set [2] (setting [11]) and in data set [4] (setting [12]) was above 40 µM throughout.

Take `C=C1C(=O)OC2CC3(C)C(=CC12)C(C)CCC3OC(C)=O` (stereo not drawn) [1a, 1β-ethanoyl alantolactone]: the IC50 in data set [1] came out at 8.2 ± 1 µM; in data set [2] (mean ± SD, read-out: IC50 PC-3) it was 8.1 ± 0.3 µM; in [3], 10.3 ± 1.8 µM; in data set [4] (setting [10]), 6.3 ± 1.3 µM; in [9] it was 10.3 ± 1.8 µM; in [5], 12.3 ± 1.6 µM.

In the case of `C=C1C(=O)O[C@@H]2C[C@]3(C)C(=C[C@H]12)[C@@H](C)CC[C@H]3OC(=O)c1ccc(F)cc1` [1c, 1β-(4-fluorobenzoyl) alantolactone], the IC50 in data set [1] was above 40 µM; in data set [2] (mean ± SD, read-out: IC50 PC-3) it was above 40 µM; in data set [3], above 40 µM; in [4] (setting [10]), above 40 µM.

For `C=C1C(=O)O[C@@H]2C[C@]3(C)C(=C[C@H]12)[C@@H](C)CC[C@H]3OC(=O)/C=C/c1ccc(Br)cc1` [1f, 1β-(4-bromocinnamoyl) alantolactone], the IC50 in data set [1] was above 40 µM; in data set [2] (mean ± SD, read-out: IC50 PC-3), 18.7 ± 5.2 µM; in data set [3] it was above 40 µM; in data set [4] (setting [10]), 12.5 ± 2.2 µM.

`Cc1ccc(C2=NO[C@]3(C2)C(=O)O[C@@H]2C[C@@]4(C)C(=O)CC[C@H](C)C4=C[C@@H]23)cc1` [1k, (11 S)-16-(p-methylphenyl)-spiroisoxazoline-1-carbonyl-alantolactone]: the IC50 in data set [2] (setting [11]) and in data set [4] (setting [12]) was above 40 µM in each case.

With `C[C@H]1CCC(=O)[C@]2(C)C[C@H]3OC(=O)[C@]4(CC(c5ccc(Cl)cc5)=NO4)[C@H]3C=C12` [1n, (11 S)-16-(p-chlorophenyl)-spiroisoxazoline-1-carbonyl-alantolactone], the IC50 in data set [2] (setting [11]) and in [4] (setting [12]) was above 40 µM each time.

Take `C=C1C(=O)O[C@@H]2C[C@]3(C)C(=C[C@H]12)[C@@H](C)CC[C@H]3OC(=O)/C=C/c1ccc(C(F)(F)F)cc1` [1g, 1β-(4-trifluoromethyl) alantolactone]: the IC50 is 10 ± 2.1 µM in data set [1]; 11.8 ± 2.8 µM in [2] (mean ± SD, read-out: IC50 PC-3); above 40 µM in [3]; 15.2 ± 3.8 µM in [4] (setting [10]).

Consider `COc1cc(C2=NO[C@]3(C2)C(=O)O[C@@H]2C[C@@]4(C)C(=O)CC[C@H](C)C4=C[C@@H]23)c(Cl)c(OC)c1OC` [1q, (11 S)-16-(2-chloro-3,4,5-trimethoxylphenyl)-spiroisoxazoline-1-carbonyl-alantolactone], for which the IC50 in data set [2] (setting [11]) and in data set [4] (setting [12]) was above 40 µM in each case.

Take `C[C@H]1CCC(=O)[C@]2(C)C[C@H]3OC(=O)[C@]4(CC(c5ccccc5[N+](=O)[O-])=NO4)[C@H]3C=C12` [1m, (11 S)-16-(o-nitrophenyl)-spiroisoxazoline-1-carbonyl-alantolactone]: the IC50 in [2] (setting [11]) and in data set [4] (setting [12]) was above 40 µM in each case.

With `C=C1C(=O)O[C@@H]2C[C@]3(C)C(=C(C)CC[C@H]3OC(C)=O)C[C@H]12` [2a, 1β-ethanoyl ivangustin], the 50% inhibitory concentration (IC50) was 32.3 ± 2 µM in [1]; 28.9 ± 4.5 µM in data set [2] (mean ± SD, read-out: IC50 PC-3); above 40 µM in data set [3]; above 40 µM in data set [4] (setting [10]).

In the case of `CC1CCC(OC(=O)c2ccccc2)C2(C)CC3OC(=O)C4(CCC(=O)O4)C3C=C12` (stereo not drawn) [1j, 1β-benzoyl alanto-spirobislactone], the IC50 in data set [2] (setting [11]) and in data set [4] (setting [12]) was above 40 µM each time.

As to `C=C1C(=O)O[C@@H]2C[C@]3(C)C(=C[C@H]12)[C@@H](C)CC[C@H]3OC(=O)c1ccc([N+](=O)[O-])cc1` [1d], the IC50 in [1] is above 40 µM; in [2] (mean ± SD, read-out: IC50 PC-3), above 40 µM; in [3] it was above 40 µM; in [4] (setting [10]), 23.5 ± 3.6 µM.

For `CC1CCC(O)C2(C)CC3OC(=O)C(C)C3C=C12` (stereo not drawn) [1r, (11 S)-1β-hydroxy alantolactone derivative], the IC50 in data set [2] (setting [11]) and in data set [4] (setting [12]) was above 50 µM throughout. In data set [6] (SAR statement on Tables 2 and 3), the “cytotoxic activity in words” value was “loss of cytotoxic activity”.

As to `C=C1C(=O)O[C@@H]2C[C@]3(C)C(=C[C@H]12)[C@@H](C)CC[C@H]3OC(=O)c1ccccc1` [1b, 1β-benzoyl alantolactone], the IC50 is 25.5 ± 3.2 µM in data set [1]; above 40 µM in data set [2] (mean ± SD, read-out: IC50 PC-3); above 40 µM in [3]; above 40 µM in data set [4] (setting [10]).

Regarding `C=C1C(=O)O[C@@H]2C[C@]3(C)C(=C(C)CC[C@H]3OC(=O)c3ccc(F)cc3)C[C@H]12` [2c, 1β-(4-fluorobenzoyl) ivangustin], the IC50 was above 40 µM in data set [1]; above 40 µM in data set [2] (mean ± SD, read-out: IC50 PC-3); above 40 µM in data set [3]; above 40 µM in data set [4] (setting [10]).

Take `C[C@H]1CCC(=O)[C@]2(C)C[C@H]3OC(=O)[C@]4(CC(c5ccc([N+](=O)[O-])cc5)=NO4)[C@H]3C=C12` [1l, (11 S)-16-(p-nitrophenyl)-spiroisoxazoline-1-carbonyl-alantolactone]: the IC50 in data set [2] (setting [11]) and in data set [4] (setting [12]) was above 40 µM each time.

With `COc1ccc(Cl)cc1C1=NO[C@]2(C1)C(=O)O[C@@H]1C[C@@]3(C)C(=O)CC[C@H](C)C3=C[C@@H]12` [1p, (11 S)-16-(5-chloro-2-methoxylphenyl)-spiroisoxazoline-1-carbonyl-alantolactone], the IC50 in data set [2] (setting [11]) and in data set [4] (setting [12]) was above 40 µM in each case.

With `C=C1C(=O)O[C@@H]2C[C@]3(C)C(=C[C@H]12)[C@@H](C)CC[C@H]3OC(=O)CCC(=O)O` [1h, 1β-carboxypropionyl alantolactone], the IC50 in data set [1] is above 40 µM; in data set [2] (mean ± SD, read-out: IC50 PC-3), above 40 µM; in [3] it was above 40 µM; in [4] (setting [10]), above 40 µM; in [5], 39.5 ± 2.5 µM.

For the compound `C=C1C(=O)O[C@@H]2C[C@@]3(C)C(=O)CCC(C)=C3C[C@H]12` [2d, 1-carbonyl-ivangustin], the IC50 came out at 8.6 ± 1.4 µM in data set [1]; 7 ± 2.1 µM in data set [2] (mean ± SD, read-out: IC50 PC-3); 14.1 ± 2.9 µM in data set [3]; 7.7 ± 1.5 µM in data set [4] (setting [10]); 12.1 ± 5.2 µM in [9]; 10.5 ± 0.5 µM in [5].
